Data reported in patent publication US8741807B2 (priority 2011, dated 2014).
Where two headings read alike, the source gives them in different places.

Test system: rice blast fungus (Kyu89-246, MAFF101506, race 003.0)
Type: in vivo
Details: inoculated next day, 6 days after inoculation, five-leaf stage

Structure (SMILES)	resistance to rice blast (number of lesions) (sprayed at 5 mM)	resistance to rice blast (number of lesions) (sprayed at 1 mM)
NCCCCN(CCCN)C(=O)CCCCCCCCCCCO [YIS12OH4N, ^4N-(12-hydroroxylauroyl)-spermidine]	showed resistance to rice blast	
NCCCCNCCCNC(=O)CCCCCCCCCCCO [YIS12OH1N, 1-N-(12-hydroroxylauroyl)-spermidine]	showed resistance to rice blast	provided the resistance
